Results taken from patent US9974825B2, “Peptides Des-[Asp1]-[Ala1], angiotensin-(1-7) agonist and pharmaceutical compositions for the treatment of diseases” (UNIVERSIDADE FEDERAL DE MINAS GERAIS, priority 2008, dated 2018).

How the values were obtained:
[1] = test system: aorta rings of Mas+/+ mice; assay: Vasorelaxation in phenylephrine-precontracted aorta rings of wild-type (Mas+/+) mice; assay type: cell-based, mice (C57/BI-6 and FVB/N); conditions: both lineages C57/BI-6 and FVB/N, precontracted with fenilefrine 0.1 μM
Description: (§1) This example describes the vasodilating effect of Ala^1-Ang-(1-7), independently of the Mas receptor, on aorta rings of mice with genetic deletion of the Mas receptor (Mas−/−) and wild-type mice (Mas+/+) from two different lineages, C57/BI-6 and FVB/N.
(§2) The original rings of the descending thoracic aorta (2 mm), free from adipose tissue and connective tissue, were incubated in gasified solution (95% O2 and 5% CO2) of Krebs-Henseleit (mmol/L): NaCl 110.8, KCl 5.9, NaHCO3 25.0, MgSO4 1.07, CaCl2 2.49, NaH2PO4 2.33 and glucose 11.51, under a temperature of 37° C. and a 0.5 g tension, being equilibrated for 1 hour. The functional presence of endothelium was tested by its relaxing capacity produced by acetylcholine [ACh] (10 μM) on vessels precontracted with fenilefrine (0.3 μM). Only the vessels showing relaxation above 70% of extended contraction produced by fenilefrine were taken into account. […]
(§3) The aorta rings of mice Mas−/− and Mas+/+ from both lineages (C57/BI-6 and FVB/N) were precontracted to achieve the same tension level (approximately a 1.0 g tension) at a submaximum concentration of fenilefrine (0.1 μM). […] The vasodilating effects of Ala^1-Ang-(1-7) and Ang-(1-7) were expressed as a percentage of relaxation relative to the maximum contraction induced by fenilefrine. […]

[2] = test system: aorta rings of Mas−/− mice; assay: Vasorelaxation in precontracted aorta rings of mice with genetic deletion of the Mas receptor (Mas-/-); assay type: cell-based, mice (C57/BI-6 and FVB/N); conditions: both lineages C57/BI-6 and FVB/N, precontracted with fenilefrine 0.1 μM
Description: as §1, §2, §3

[3] = test system: aorta rings in absence of functional endothelium; assay: Vasorelaxation in aorta rings without functional endothelium; assay type: cell-based, mice (C57/BI-6 and FVB/N); conditions: vessels not presenting functional endothelium (Mas+/+ and Mas−/−, C57/BI-6 and FVB/N)
Description: This example describes the endothelium-dependence of the Ala^1-Ang-(1-7) vasorelaxing activity.
as §2, with “μM). In accordance with experimental protocols for its absence, the endothelium was removed with a slight friction on the vessel internal surface.” for “μM).”, “relaxation by acetylcholine” for “relaxation”
The Ala^1-Ang-(1-7) vasorelaxing activity was measured in vessels (Mas+/+ and Mas−/−, of lineages C57/BI-6 and FVB/N) in the presence or absence of precontracted functional endothelium (with approximately a 1.0 g tension) and a submaximum concentration of fenilefrine (0.1 μM). […] The vasodilating effects of Ala^1-Ang-(1-7) and Ang-(1-7) were expressed as a relaxation percentage relative to the maximum contraction induced by fenilefrine. […]

Mas receptor = conditions: Santos et al., PNAS 2003; cited from earlier work

Ala^1-Arg^2-Val^3-Tyr^4-Ile^5-His^6-Pro^7 [Ala^1-Ang-(1-7)]
vasorelaxation (relaxation relative to maximum contraction induced by fenilefrine) [1]: produced vasorelaxation
vasodilating response [2]: totally preserved
vasodilating effect [3]: abolished

Asp^1-Arg^2-Val^3-Tyr^4-Ile^5-His^6-Pro^7 [Ang-(1-7)]
Kd (Mas receptor): 0.33 nM
vasorelaxation (relaxation relative to maximum contraction induced by fenilefrine) [1]: produced vasorelaxation
vasodilating response [2]: absence
